# Patent publication US4562287A, “2-(4-Biphenylyl)-4-hexenoic acid and derivatives thereof having anti-inflammatory activity” (priority 1983, dated 1985)
# Counter-ions that a name gives are not always drawn.
# What was measured:
# [1] = test system: Carragenine induced edema; test: Anti-inflammatory activity on carragenine induced edema (Table 11); assay type: in vivo; settings: for % inhibition: 50 mg/Kg p.o.
# [2] = test system: Carragenine induced edema; test: Carragenine induced edema, first test (Table 2); assay type: in vivo
# From the text: |ANTI-INFLAMMATORY ACTIVITY. |Carragenine induced edema, first test.
# Joint's diameter = Joint's diameter in arthritis (Table 7); assay type: in vivo; parameters: unit not given here
# SH Groups in serum = test: SH groups in serum (Table 8); assay type: in vivo; settings: arthritis checks 70, 77
# [3] = test system: erytrocytes sedimetation rate (ESR); test: Erytrocytes sedimetation rate (ESR) (Table 8); assay type: in vivo; parameters: unit not given here; settings: arthritis checks 41, 56
# [4] = test system: Freund's adjuvant induced arthritis; test: Freund's adjuvant induced arthritis, edema inhibition
# in vivo = settings: po, rat, p.o., read-out: DL50 (the source's name)
# [5] = test system: Carragenine induced edema; test: Activity on carragenine induced edema (Table 9); assay type: in vivo
# From the text: |Activity on carragenine induced edema.
# [6] = test system: Hot plate, endurance time at 52° C.; test: Analgesic activity, Hot plate (I); assay type: in vivo; settings: 50 mg/Kg p.o., 2 hours
# Procedure: (§1) Dose endurance time at 52° C. over checks
# [7] = test system: Hot plate, endurance time at 52° C.; test: Analgesic activity, Hot plate (II); assay type: in vivo
# Procedure: as §1
# pain threshold = test: Analgesic activity, RANDALL-SELLITO pain threshold; assay type: in vivo
# From the text: | RANDALL-SELLITO pain threshold
# Carragenine edema = test: Edema induced by different substances: carragenine (Table 3); assay type: in vivo
# From the text: (§2) |Edema induced by different substances.
# Kaolin edema = test: Edema induced by different substances: kaolin (Table 3); assay type: in vivo
# From the text: as §2
# Yeast edema = test: Edema induced by different substances: yeast (Table 3); assay type: in vivo
# From the text: |Edema induced by different substances. | % edema inhibition
# Serotonin edema = test: Edema induced by different substances: serotonin (Table 3); assay type: in vivo
# From the text: as §2
# Dextrose edema = test: Edema induced by different substances: dextrose (Table 3); assay type: in vivo
# From the text: as §2
# ulcerogenic effect = test: Ulcerogenic effect; assay type: in vivo; settings: dose 50 mg
# [8] = 20 mg/Kg p.o., 1 week, arthritis checks 0.48, 0.38
# [9] = 20 mg/Kg p.o., 2 weeks, arthritis checks 0.71, 0.75
# [10] = 20 mg/Kg p.o., 3 weeks, arthritis checks 0.81, 0.79
# [11] = 20 mg/Kg p.o., 4 weeks, arthritis checks 0.85, 0.89
# [12] = 40 mg/Kg p.o., 1 week, arthritis checks 0.48, 0.38
# [13] = 40 mg/Kg p.o., 2 weeks, arthritis checks 0.71, 0.75
# [14] = 40 mg/Kg p.o., 3 weeks, arthritis checks 0.81, 0.79
# [15] = 40 mg/Kg p.o., 4 weeks, arthritis checks 0.85, 0.89
smiles,measurement,setting,value
"CC(=O)Oc1ccccc1C(=O)O [Acetylsalicylic acid, reference compound]",% inhibition,[1],23%
CC(C)Cc1ccc(C(C)C(=O)O)cc1 (centres unmarked) [Ibuprofen],% inhibition,[2]; 12.5 mg/Kg p.o.,27%
same,% inhibition,[2]; 25 mg/Kg p.o.,33%
same,% inhibition,[2]; 50 mg/Kg p.o.,47%
same,% inhibition,[2]; 100 mg/Kg p.o.,54%
same,Joint's diameter,Joint's diameter; [8],0.31
same,Joint's diameter,Joint's diameter; [9],0.53
same,Joint's diameter,Joint's diameter; [10],0.65
same,Joint's diameter,Joint's diameter; [11],0.81
same,Joint's diameter,Joint's diameter; [12],0.35
same,Joint's diameter,Joint's diameter; [13],0.60
same,Joint's diameter,Joint's diameter; [14],0.75
same,Joint's diameter,Joint's diameter; [15],0.80
same,SH groups diminution in %,SH Groups in serum; 20 mg/Kg p.o.,78%
same,SH groups diminution in %,SH Groups in serum; 40 mg/Kg p.o.,73%
same,E.S.R.,[3]; 20 mg/Kg p.o.,58
same,E.S.R.,[3]; 40 mg/Kg p.o.,30
same,% inhibition,[1],40%
same,Edema inhibition %,"[4]; 20 mg/Kg p.o., 2 days",34%
same,Edema inhibition %,"[4]; 20 mg/Kg p.o., 4 days",29%
same,Edema inhibition %,"[4]; 20 mg/Kg p.o., 8 days",19%
same,Edema inhibition %,"[4]; 20 mg/Kg p.o., 12 days",24%
same,Edema inhibition %,"[4]; 20 mg/Kg p.o., 16 days",14%
same,Edema inhibition %,"[4]; 20 mg/Kg p.o., 24 days",4%
same,Edema inhibition %,"[4]; 40 mg/Kg p.o., 2 days",32%
same,Edema inhibition %,"[4]; 40 mg/Kg p.o., 4 days",17%
same,Edema inhibition %,"[4]; 40 mg/Kg p.o., 8 days",26%
same,Edema inhibition %,"[4]; 40 mg/Kg p.o., 12 days",19%
same,Edema inhibition %,"[4]; 40 mg/Kg p.o., 16 days",27%
same,Edema inhibition %,"[4]; 40 mg/Kg p.o., 20 days",19%
same,Edema inhibition %,"[4]; 40 mg/Kg p.o., 24 days",9%
"CC=CCC(C(=O)O)c1ccc(-c2ccc(F)cc2)cc1 (centres unmarked) [SCR 159, 2-[4-biphenylyl-(4' fluoro)]4-hexenoic acid]",LD50,in vivo,900 mg/kg
same,Inhibition %,[5]; 53 mg/Kg p.o.,29%
same,Inhibition %,[5]; 80 mg/Kg p.o.,26%
same,Inhibition %,[5]; 120 mg/Kg p.o.,26%
same,endurance time at 52° C. over checks,[6],38
same,endurance time at 52° C. over checks,"[7]; Hot plate (II), 35,6 mg/Kg p.o., 1 hour",22
same,endurance time at 52° C. over checks,"[7]; Hot plate (II), 35,6 mg/Kg p.o., 2 hours",43
same,endurance time at 52° C. over checks,"[7]; Hot plate (II), 53,45 mg/Kg p.o., 1 hour",45
same,endurance time at 52° C. over checks,"[7]; Hot plate (II), 53,45 mg/Kg p.o., 2 hours",29
same,endurance time at 52° C. over checks,"[7]; Hot plate (II), 80,18 mg/Kg p.o., 1 hour",26
same,RANDALL-SELLITO pain threshold over checks,"pain threshold; 23,7 mg/Kg p.o., 1 hour",55
same,RANDALL-SELLITO pain threshold over checks,"pain threshold; 23,7 mg/Kg p.o., 2 hours",7
same,RANDALL-SELLITO pain threshold over checks,"pain threshold; 35,6 mg/Kg p.o., 1 hour",49
same,RANDALL-SELLITO pain threshold over checks,"pain threshold; 35,6 mg/Kg p.o., 2 hours",32
same,RANDALL-SELLITO pain threshold over checks,"pain threshold; 53,45 mg/Kg p.o., 1 hour",47
same,RANDALL-SELLITO pain threshold over checks,"pain threshold; 53,45 mg/Kg p.o., 2 hours",16
same,% inhibition,[1],32%
"CCCCC1C(=O)N(c2ccccc2)N(c2ccccc2)C1=O [PHENYL-BUTAZONE, phenylbutazone, reference compound]",% inhibition,[2]; 75 mg/Kg p.o.,43%
same,% inhibition,[2]; 150 mg/Kg p.o.,46%
same,% edema inhibition,Carragenine edema; 50 mg/Kg p.o.,13%
same,% edema inhibition,Carragenine edema; 100 mg/Kg p.o.,32%
same,% edema inhibition,Carragenine edema; 200 mg/Kg p.o.,61%
same,% edema inhibition,Kaolin edema; 50 mg/Kg p.o.,41%
same,% edema inhibition,Kaolin edema; 100 mg/Kg p.o.,40%
same,% edema inhibition,Kaolin edema; 200 mg/Kg p.o.,53%
same,% edema inhibition,Yeast edema; 50 mg/Kg p.o.,7%
same,% edema inhibition,Yeast edema; 100 mg/Kg p.o.,23%
same,% edema inhibition,Yeast edema; 200 mg/Kg p.o.,18%
same,% edema inhibition,Serotonin edema; 50 mg/Kg p.o.,24%
same,% edema inhibition,Serotonin edema; 100 mg/Kg p.o.,12%
same,% edema inhibition,Serotonin edema; 200 mg/Kg p.o.,25%
same,% edema inhibition,Dextrose edema; 50 mg/Kg p.o.,0%
same,% edema inhibition,Dextrose edema; 100 mg/Kg p.o.,0%
same,% edema inhibition,Dextrose edema; 200 mg/Kg p.o.,18%
"CC=CCC(C(=O)O)c1ccc(-c2ccccc2)cc1 (single isomer, unassigned) [SCR 153, Triethanolamine salt of dextrogyre form]",% inhibition,[2]; 12.5 mg/Kg p.o.,24%
same,% inhibition,[2]; 25 mg/Kg p.o.,29%
same,% inhibition,[2]; 50 mg/Kg p.o.,45%
same,% inhibition,[2]; 100 mg/Kg p.o.,53%
same,Joint's diameter,Joint's diameter; [8],0.46
same,Joint's diameter,Joint's diameter; [9],0.61
same,Joint's diameter,Joint's diameter; [10],0.62
same,Joint's diameter,Joint's diameter; [11],0.73
same,Joint's diameter,Joint's diameter; [12],0.24
same,Joint's diameter,Joint's diameter; [13],0.39
same,Joint's diameter,Joint's diameter; [14],0.44
same,Joint's diameter,Joint's diameter; [15],0.52
same,SH groups diminution in %,SH Groups in serum; 20 mg/Kg p.o.,79%
same,SH groups diminution in %,SH Groups in serum; 40 mg/Kg p.o.,48%
same,E.S.R.,[3]; 20 mg/Kg p.o.,59
same,E.S.R.,[3]; 40 mg/Kg p.o.,32
same,anti-inflammatory effect compared with 5 mg of indomethacin,[1]; 50 mg SCR 153 vs 5 mg indomethacin,near equal to the one obtained with 5 mg of indomethacin
same,% inhibition,[1],37%
same,ulcerogenic effect,ulcerogenic effect,it is doubtful that above dose (50 mg) of SCR 153 could have any ulcerogenic effect
same,Edema inhibition %,"[4]; 20 mg/Kg p.o., 2 days",40%
same,Edema inhibition %,"[4]; 20 mg/Kg p.o., 4 days",24%
same,Edema inhibition %,"[4]; 20 mg/Kg p.o., 8 days",52%
same,Edema inhibition %,"[4]; 20 mg/Kg p.o., 12 days",49%
same,Edema inhibition %,"[4]; 20 mg/Kg p.o., 16 days",30%
same,Edema inhibition %,"[4]; 20 mg/Kg p.o., 20 days",22%
same,Edema inhibition %,"[4]; 20 mg/Kg p.o., 24 days",10%
same,Edema inhibition %,"[4]; 40 mg/Kg p.o., 2 days",60%
same,Edema inhibition %,"[4]; 40 mg/Kg p.o., 4 days",40%
same,Edema inhibition %,"[4]; 40 mg/Kg p.o., 8 days",56%
same,Edema inhibition %,"[4]; 40 mg/Kg p.o., 12 days",61%
same,Edema inhibition %,"[4]; 40 mg/Kg p.o., 16 days",59%
same,Edema inhibition %,"[4]; 40 mg/Kg p.o., 20 days",56%
same,Edema inhibition %,"[4]; 40 mg/Kg p.o., 24 days",55%
